# Experimental data published in PubChem BioAssay (NCI).
# Several values for one entry are separate records, joined by “and”; a condition that tells them apart may be missing. Equal entries are not always repeated.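 In this assay, cells in 96-well plates receive the compound at five concentrations for 48 hours. Endpoints are linearly interpolated between the surrounding concentrations. At the GI50, growth is halved. Definition used: TGI = concentration required for complete inhibition of growth.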
# Tests used:
# Experiment in all cases: NCI tumour cell line growth inhibition, 48 h
# [1] = tested on: K-562 leukemia
# [2] = tested on: OVCAR-3 ovarian
# [3] = tested on: T-47D breast
# [4] = tested on: SR leukemia
# [5] = tested on: SN12C renal
# [6] = tested on: RXF 393 renal
# [7] = tested on: 786-0 renal
# [8] = tested on: UO-31 renal
# [9] = tested on: DMS 114 small cell lung
# [10] = tested on: SK-MEL-5 melanoma
# [11] = tested on: U251 CNS
# [12] = tested on: SF-539 CNS
# [13] = tested on: UACC-62 melanoma
# [14] = tested on: HL-60(TB) leukemia
# [15] = tested on: BT-549 breast
# [16] = tested on: MDA-MB-231 breast
# [17] = tested on: XF 498 CNS
# [18] = tested on: EKVX NSCLC
# [19] = tested on: PC-3 prostate
# [20] = tested on: M19-MEL melanoma
# [21] = tested on: CCRF-CEM leukemia
# [22] = tested on: HOP-92 NSCLC
# [23] = tested on: HCT-116 colon
# [24] = tested on: DMS 273 small cell lung
# [25] = tested on: SNB-75 CNS
# [26] = tested on: A549 NSCLC
# [27] = tested on: MDA-N
# [28] = tested on: UACC-257 melanoma
# [29] = tested on: CAKI-1 renal
# [30] = tested on: RXF-631 renal
# [31] = tested on: M14 melanoma
# [32] = tested on: OVCAR-8 ovarian
# [33] = tested on: NCI/ADR-RES ovarian
# [34] = tested on: DU-145 prostate
# [35] = tested on: LOX IMVI melanoma
# [36] = tested on: SF-295 CNS
# [37] = tested on: HCC-2998 colon
# [38] = tested on: KM12 colon
# [39] = tested on: DLD-1 colon
# [40] = tested on: NCI-H226 lung
# [41] = tested on: NCI-H522 lung
# [42] = tested on: SK-MEL-28 melanoma
# [43] = tested on: HT29 colon
# [44] = tested on: HOP-62 NSCLC
# [45] = tested on: HCT-15 colon
# [46] = tested on: MOLT-4 leukemia
# [47] = tested on: SW-620 colon
# [48] = tested on: OVCAR-4 ovarian
# [49] = tested on: MCF7 breast
# [50] = tested on: SF-268 CNS
# [51] = tested on: MDA-MB-435
# [52] = tested on: HOP-18 NSCLC
# [53] = tested on: TK-10 renal
# [54] = tested on: HS 578T breast
# [55] = tested on: NCI-H23 lung
# [56] = tested on: A498 renal
# [57] = tested on: ACHN renal
# [58] = tested on: SK-MEL-2 melanoma
# [59] = tested on: SK-OV-3 ovarian
# [60] = tested on: NCI-H460 lung
# [61] = tested on: OVCAR-5 ovarian
# [62] = tested on: KM20L2 colon
# [63] = tested on: COLO 205 colon
# [64] = tested on: SNB-19 CNS
# [65] = tested on: IGROV1 ovarian
# [66] = tested on: MALME-3M melanoma
# [67] = tested on: SNB-78 CNS
# [68] = tested on: RPMI-8226 leukemia
# [69] = tested on: SN12K1 renal
# [70] = tested on: P388/ADR leukemia
# [71] = tested on: P388 leukemia
# [72] = tested on: LXFL 529 NSCLC
compound,measurement,setting,value
NC(=O)c1cccc([C@@H]2O[C@H](CO)[C@@H](O)[C@H]2O)c1,TGI,[1],41.3 µM
same,TGI,[2],67.2 µM
same,TGI,[3],> 66.6 µM
same,TGI,[4],> 82.2 µM
same,TGI,[5],80 µM
same,TGI,[6],34.6 µM
same,TGI,[7],12.3 µM
same,TGI,[8],15.7 µM
same,TGI,[9],32.7 µM
same,TGI,[10],53.2 µM
same,TGI,[11],32.4 µM
same,TGI,[12],6.28 µM
same,TGI,[13],60 µM
same,TGI,[14],10.2 µM
same,TGI,[15],43.4 µM
same,TGI,[16],> 100 µM
same,TGI,[17],7 µM
same,TGI,[18],> 100 µM
same,TGI,[19],> 100 µM
same,TGI,[20],60.7 µM
same,TGI,[21],15.4 µM
same,TGI,[22],> 69.6 µM
same,TGI,[23],34.6 µM
same,TGI,[24],22.9 µM
same,TGI,[25],14.4 µM
same,TGI,[26],> 100 µM
same,TGI,[27],> 100 µM
same,TGI,[28],> 100 µM
same,TGI,[29],> 69.1 µM
same,TGI,[30],43.2 µM
same,TGI,[31],12.4 µM
same,TGI,[32],9.55 µM
same,TGI,[33],16.3 µM
same,TGI,[34],> 50.6 µM
same,TGI,[35],> 85.4 µM
same,TGI,[36],28.7 µM
same,TGI,[37],> 87.6 µM
same,TGI,[38],15.9 µM
same,TGI,[39],35.9 µM
same,TGI,[40],75.7 µM
same,TGI,[41],10.2 µM
same,TGI,[42],29.6 µM
same,TGI,[43],99 µM
same,TGI,[44],28 µM
same,TGI,[45],11.7 µM
same,TGI,[46],8.45 µM
same,TGI,[47],42.8 µM
same,TGI,[48],19.7 µM
same,TGI,[49],> 100 µM
same,TGI,[50],26.6 µM
same,TGI,[51],> 90.3 µM
same,TGI,[52],68.6 µM
same,TGI,[53],99.1 µM
same,TGI,[54],74.5 µM
same,TGI,[55],35.4 µM
same,TGI,[56],> 100 µM
same,TGI,[57],71.3 µM
same,TGI,[58],> 100 µM
same,TGI,[59],35.7 µM
same,TGI,[60],> 100 µM
same,TGI,[61],> 100 µM
same,TGI,[62],> 94.1 µM
same,TGI,[63],48.7 µM
same,TGI,[64],34.3 µM
same,TGI,[65],85.6 µM
same,TGI,[66],> 100 µM
same,TGI,[67],24.4 µM
same,TGI,[68],29.8 µM
CCCCCC(O)C1C(=O)OC(C)C(O)/C=C/C=C/C=C/C=C/C=C(\C)C(O)C(O)C(O)CC(O)CC(O)CC(O)CC(O)CC1O (stereo not given),TGI,[3],> 100 µM
same,TGI,[4],> 100 µM
same,TGI,[69],2.97 µM
same,TGI,[6],1.89 µM
same,TGI,[7],> 100 µM
same,TGI,[8],3.27 µM
same,TGI,[9],2.92 µM
same,TGI,[70],3.8 µM
same,TGI,[14],> 100 µM
same,TGI,[15],> 100 µM
same,TGI,[16],> 100 µM
same,TGI,[17],2.84 µM
same,TGI,[19],> 100 µM
same,TGI,[20],2.59 µM
same,TGI,[71],2.42 µM
same,TGI,[22],3.21 µM
same,TGI,[24],2.84 µM
same,TGI,[27],> 100 µM
same,TGI,[31],> 100 µM
same,TGI,[33],3.73 µM
same,TGI,[34],> 100 µM
same,TGI,[37],3.26 µM
same,GI50,[38],11.8 µM and 1.77 µM
same,TGI,[39],3.32 µM
same,TGI,[41],3.3 µM
same,TGI,[45],5.93 µM
same,TGI,[48],3.25 µM
same,TGI,[51],> 100 µM
same,TGI,[52],4.61 µM
same,TGI,[53],> 100 µM
same,TGI,[54],> 100 µM
same,TGI,[57],> 100 µM
same,TGI,[60],3.44 µM
same,TGI,[62],5.64 µM
same,TGI,[67],4.69 µM
O=C(NO)c1ccc(O)c(O)c1,TGI,[1],93.8 µM
same,TGI,[2],> 100 µM
same,TGI,[4],> 100 µM
same,TGI,[5],> 100 µM
same,TGI,[6],> 100 µM
same,TGI,[7],> 100 µM
same,TGI,[8],> 100 µM
same,TGI,[9],> 100 µM
same,TGI,[10],> 100 µM
same,TGI,[11],> 100 µM
same,TGI,[12],> 100 µM
same,TGI,[13],> 100 µM
same,TGI,[14],56 µM
same,TGI,[17],> 100 µM
same,TGI,[18],> 100 µM
same,TGI,[20],> 100 µM
same,TGI,[21],> 100 µM
same,TGI,[22],> 100 µM
same,TGI,[23],> 100 µM
same,TGI,[24],77.8 µM
same,TGI,[25],> 100 µM
same,TGI,[26],> 100 µM
same,TGI,[28],> 100 µM
same,TGI,[29],> 100 µM
same,TGI,[30],> 100 µM
same,TGI,[31],> 100 µM
same,TGI,[32],> 100 µM
same,TGI,[72],> 100 µM
same,TGI,[36],> 100 µM
same,TGI,[37],> 100 µM
same,TGI,[38],> 100 µM
same,TGI,[39],> 100 µM
same,TGI,[40],> 100 µM
same,TGI,[41],> 100 µM
same,TGI,[42],> 100 µM
same,TGI,[43],> 100 µM
same,TGI,[44],> 100 µM
same,TGI,[45],> 100 µM
same,TGI,[46],> 100 µM
same,TGI,[47],> 100 µM
same,TGI,[48],> 100 µM
same,TGI,[50],> 100 µM
same,TGI,[52],> 100 µM
same,TGI,[53],> 100 µM
same,TGI,[55],> 100 µM
same,TGI,[56],> 100 µM
same,TGI,[57],> 100 µM
same,TGI,[59],> 100 µM
same,TGI,[60],> 100 µM
same,TGI,[61],> 100 µM
same,TGI,[62],> 100 µM
same,TGI,[63],> 100 µM
same,TGI,[64],> 100 µM
same,TGI,[65],> 100 µM
same,TGI,[66],> 100 µM
same,TGI,[67],> 100 µM
same,TGI,[68],> 100 µM
